According to ChEMBL document CHEMBL2046321, “Molecular Docking and in Vitro Antileishmanial Evaluation of Chromene-2-thione Analogues” (ACS Med Chem Lett, 2012):
One block for each compound: values may come before it.

Experiments:
[1] = Cytotoxicity against human PBMC assessed as cell killing at IC50 after 48 hrs by MTT assay; details: PBMC (peripheral blood mononuclear cells)
[2] = Cytotoxicity against human PBMC assessed as cell killing at 2 times IC50 after 48 hrs by MTT assay; details: PBMC (peripheral blood mononuclear cells)
[3] = system: Leishmania donovani; assay: Antileishmanial activity against promastigotes of Leishmania donovani LEM-138 (MHOM/IN/00/DEVI) by MTT assay; type: functional, organism-based
[4] = system: Leishmania donovani; assay: Ratio of IC50 for promastigotes of Leishmania donovani LEM-138 (MHOM/IN/00/DEVI) to IC50 for axenic amastigotes of Leishmania donovani LEM-138 (MHOM/IN/00/DEVI); type: functional
[5] = system: Leishmania donovani; assay: Antileishmanial activity against axenic amastigotes of Leishmania donovani LEM-138 (MHOM/IN/00/DEVI) by MTT assay; type: functional, organism-based
[6] = system: Leishmania donovani; assay: Antileishmanial activity against amastigotes of Leishmania donovani LEM-138 (MHOM/IN/00/DEVI) infected in mouse J774A.1 cells after 72 hrs by Giemsa dye staining; type: functional, organism-based; details: J774.A1, 72 h

IC50 [6]: 22 µM
SMILES: O=C(c1cccs1)c1cc2c(ccc3ccccc32)oc1=S
cell killing at 48 h [1]: 28.8%
cell killing at 48 h [2]: 24.6%
IC50 [3]: 97 µM
Ratio IC50 [4]: 2.7
IC50 [5]: 36 µM

SMILES: COc1ccc(C(=O)c2cc3c(ccc4ccccc43)oc2=S)cc1
cell killing at 48 h [1]: 15.1%
cell killing at 48 h [2]: 27%
IC50 [3]: 335 µM
Ratio IC50 [4]: 1.5
IC50 [5]: 221 µM

SMILES: COc1cccc2cc(C(=O)c3cccs3)c(=S)oc12
cell killing at 48 h [1]: 11.1%
cell killing at 48 h [2]: 19.5%
IC50 [3]: 4300 µM
Ratio IC50 [4]: 4.6
IC50 [5]: 927 µM

IC50 [6]: 26 µM
SMILES: COc1cccc2cc(C(=O)c3ccco3)c(=S)oc12
cell killing at 48 h [1]: 12.3%
cell killing at 48 h [2]: 26%
IC50 [3]: 1220 µM
Ratio IC50 [4]: 18.8
IC50 [5]: 65 µM

IC50 [6]: 17 µM
SMILES: COc1ccc(C(=O)c2cc3cc(Br)ccc3oc2=S)cc1
cell killing at 48 h [1]: 32.9%
cell killing at 48 h [2]: 40.5%
IC50 [3]: 450 µM
Ratio IC50 [4]: 2.3
IC50 [5]: 198 µM

SMILES: O=C(c1ccco1)c1cc2c(ccc3ccccc32)oc1=S
cell killing at 48 h [1]: 12%
cell killing at 48 h [2]: 27.8%
IC50 [3]: 2770 µM
Ratio IC50 [4]: 75
IC50 [5]: 37 µM

SMILES: COc1cccc2cc(C(=O)c3ccc(C)cc3)c(=S)oc12
cell killing at 48 h [1]: 9.4%
cell killing at 48 h [2]: 33.1%
IC50 [3]: 744 µM
Ratio IC50 [4]: 1.7
IC50 [5]: 446 µM

SMILES: O=C(c1cccs1)c1cc2cc(Br)ccc2oc1=S
cell killing at 48 h [1]: 10.9%
cell killing at 48 h [2]: 6.66%
IC50 [3]: 4630 µM
Ratio IC50 [4]: 55.8
IC50 [5]: 83 µM

IC50 [6]: 24 µM
SMILES: COc1cccc2cc(C(=O)c3ccc(Cl)cc3)c(=S)oc12
cell killing at 48 h [1]: 0.46%
cell killing at 48 h [2]: 20.2%
IC50 [3]: 48 µM
Ratio IC50 [4]: 0.66
IC50 [5]: 73 µM

SMILES: COc1ccc(C(=O)c2cc3cccc(OC)c3oc2=S)cc1
cell killing at 48 h [1]: 16.6%
cell killing at 48 h [2]: 14.8%
IC50 [3]: 1400 µM
Ratio IC50 [4]: 2.8
IC50 [5]: 502 µM

SMILES: O=C(c1ccco1)c1cc2cc(Br)ccc2oc1=S
cell killing at 48 h [1]: 10.7%
cell killing at 48 h [2]: 17.6%
IC50 [3]: 1030 µM
Ratio IC50 [4]: 2
IC50 [5]: 524 µM

SMILES: C[C@@H]1[C@H](O)[C@@H](C)/C=C/C=C/C=C/C=C/C=C/C=C/C=C/[C@H](O[C@@H]2O[C@H](C)[C@@H](O)[C@H](N)[C@@H]2O)C[C@@H]2O[C@](O)(C[C@@H](O)C[C@@H](O)[C@H](O)CC[C@@H](O)C[C@@H](O)CC(=O)O[C@H]1C)C[C@H](O)[C@H]2C(=O)O [AMPHOTERICIN B]
cell killing at 48 h [1]: 16%
cell killing at 48 h [2]: 24.4%
IC50 [3]: 0.465 µM
IC50 [5]: 0.061 µM
